Results published in patent publication US20260355164A1, “USE OF JUN INHIBITOR IN PREPARING MEDICAMENT FOR TREATING HEART FAILURE WITH PRESERVED EJECTION FRACTION” (Fuwai Hospital, Chinese Academy of Medical Sciences and …, priority 2022, published 2026).
“Also recorded” adds a separate entry of the source.

Assays:
Assay type in all cases: in vivo, mouse (C57BL/6N)
[1] = Changes in body weight / obesity of HFpEF model mice with different treatments; settings: HFD+L-NAME mice treated with T-5224 (total dose 250 mg/kg); FIG. 3C
Description: (§1) Male C57BL/6N wild-type mice aged 8 to 10 weeks were divided into three groups, namely, normal group (normal diet and drinking water), model control group (high-fat diet combined with administration of N-nitro-L-arginine methyl ester) and model treatment group (high-fat diet combined with administration of N-nitro-L-arginine methyl ester and treatment with T-5224). Among them, the model control group and the model treatment group were modeled by the following literature: Gabriele G. Schiattarella et al., Nitrosative stress drives heart failure with preserved ejection fraction, https://doi.org/10.1038/s41586-019-1100-z. Specifically, heart failure with preserved ejection fraction was induced by a high-fat diet (HFD) (60% kcal, from fat (lard)) and N-nitro-L-arginine methyl ester (abbreviated as L-NAME, 0.5 g/L in drinking water) to obtain the HFpEF animal model.
After the animal model was obtained, that was, from the 5′ week of inducing the HFpEF model, the model treatment group was treated with T-5224, the model control group was treated with a solvent without drug, and the mice with normal diet and drinking water during the whole induction process were used as negative control. The mice were administrated with drugs when they were raised for 5 weeks. For the treatment group, T-5224 was administered at 250 mg/kg according to the body weight of mice. […]

[2] = test system: Jun; experiment: Quantitative PCR detection of Jun expression in cardiomyocytes of HFpEF model mice; settings: HFD+L-NAME mice treated with T-5224, compared with the model control group; qPCR, b-Actin standardized; FIG. 3D
Description: as §1, with “Specifically, heart failure with preserved ejection fraction was induced by a high-fat diet (HFD) (60% kcal, from fat (lard)) and N-nitro-L-arginine methyl ester (abbreviated as L-NAME, 0.5 g/L in drinking water) to obtain the HFpEF animal model.” left out
In the 15th week of model induction, the cardiomyocytes of normal group and the model control group were isolated by perfusion method, and quantitative RCR detection was performed. […]
Total RNA was extracted from cells using GeneJet RNA purification kit (Thermo Scientific, K0732), and […] of total RNA was reverse transcribed using iScript TM cDNA synthesis kit (Bio-Rad, 1708890) to generate cDNA. qPCR was performed using iTaqUniversl SYBR Green supermix (1725121, Bio-Rad) on ABI Vii7 real-time system (Life Technologies, Q6), and b-Actin was used for standardized quantitative analysis. […]

[3] = test system: mouse HFpEF model; experiment: Echocardiography and Doppler imaging (systolic and diastolic function) in HFpEF model mice (HFD+L-NAME); settings: male mice
Description: as §1, with “model. […]” for “model.”
All the mice were raised under different conditions for five weeks and then began to undergo conventional echocardiography and Doppler imaging, which was performed every two weeks until the end of the 15th week. […] All parameters were measured at least 3 times, and the mean values were provided. […]

O=C(O)CCc1cc(C(=O)c2ccc(OC3CCCC3)cc2O)ccc1OCc1ccc2c(O)noc2c1 [T-5224]
mouse obesity (changes in body weight) [1]: improved | expression of Jun in cardiomyocytes [2]: down-regulated compared with the model control group | diastolic function (E/E′) ([3]; HFD+0.5 g/L L-NAME, T-5224 0.8 mg in 200 μL 1% PVP every other day, 5th to 13th week, total dose 250 mg/kg, followed to 15th week, FIG. 3B): significantly improved and could be maintained until the 15th week | occurrence and development of HFpEF ([3]; HFD+L-NAME, cardiac function detection after T-5224 administration (from 5th week, total dose 250 mg/kg), FIG. 3A-B, 250 mg/kg): effectively alleviate the occurrence and development of HFpEF; also recorded: well suppressed
